Data taken from patent US10654853B2, “Spiro-condensed pyrrolidine derivatives as deubiquitylating enzymes (DUB) inhibitors” (MISSION THERAPEUTICS LIMITED, priority 2016, dated 2020).

Molecular target: Cezanne 1 (Homo sapiens (Human), UniProt Q6GQQ9)
Experiment: Cezanne 1 biochemical IC50 assay (fluorescence polarisation, TAMRA labelled peptide linked to ubiquitin)
Conditions: Cezanne 1 biochemical IC50 assay; 30 min pre-incubation, read after 2 hr at room temperature; read-out: IC50 range
In short: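 FLAG-tagged Cezanne 1, expressed in HEK293T and FLAG-purified, was preincubated with compound for 30 min at room temperature in Tris pH 7.5 buffer with Tween 20, BSA and β-mercaptoethanol. Reactions were started with 50 nM TAMRA-peptide isopeptide-linked to ubiquitin. Fluorescence polarisation (ex 540/em 590 nm) was read immediately and after 2 h.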

Cezanne 1, sequence (Q6GQQ9 whole entry): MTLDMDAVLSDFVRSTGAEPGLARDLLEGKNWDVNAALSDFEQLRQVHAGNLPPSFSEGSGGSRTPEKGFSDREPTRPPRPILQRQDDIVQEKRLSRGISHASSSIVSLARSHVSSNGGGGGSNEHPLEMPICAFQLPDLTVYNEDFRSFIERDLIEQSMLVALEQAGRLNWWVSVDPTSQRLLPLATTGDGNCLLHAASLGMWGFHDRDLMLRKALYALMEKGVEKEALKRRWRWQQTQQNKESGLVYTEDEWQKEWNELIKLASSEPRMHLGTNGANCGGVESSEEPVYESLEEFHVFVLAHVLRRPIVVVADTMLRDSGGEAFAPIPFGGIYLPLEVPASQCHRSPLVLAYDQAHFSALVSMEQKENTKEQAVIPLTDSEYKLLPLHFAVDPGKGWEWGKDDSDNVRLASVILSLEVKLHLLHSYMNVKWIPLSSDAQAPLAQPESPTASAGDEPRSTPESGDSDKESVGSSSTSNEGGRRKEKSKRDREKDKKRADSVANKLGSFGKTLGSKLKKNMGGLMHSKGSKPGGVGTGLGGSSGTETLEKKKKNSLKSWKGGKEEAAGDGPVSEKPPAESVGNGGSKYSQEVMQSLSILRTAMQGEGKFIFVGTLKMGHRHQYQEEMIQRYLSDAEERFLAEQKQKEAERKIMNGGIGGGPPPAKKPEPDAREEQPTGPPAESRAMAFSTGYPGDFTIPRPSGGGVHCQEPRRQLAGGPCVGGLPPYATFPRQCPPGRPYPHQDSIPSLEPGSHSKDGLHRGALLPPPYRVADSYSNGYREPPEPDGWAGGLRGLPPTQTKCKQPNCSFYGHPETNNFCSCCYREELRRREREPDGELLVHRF

| Structure (SMILES) | IC50 [µM] |
| --- | --- |
| Cc1cnn(C)c1-c1cnc2c(c1)NC(=O)C1(CCN(C#N)C1)N2 (centres unmarked) [Example 146, 7-(1,4-Dimethyl-1H-pyrazol-5-yl)-2-oxo-1,4-dihydro-2H-spiro[pyrido[2,3-b]pyrazine-3,3′-pyrrolidine]-1′-carbonitrile] | 0.1 to 1 |
| N#CN1CCC2(C1)Nc1nc(-c3ccccc3)ccc1NC2=O (centres unmarked) [Example 147, 2-Oxo-6-phenyl-1,4-dihydro-2H-spiro[pyrido[2,3-b]pyrazine-3,3′-pyrrolidine]-1′-carbonitrile] | 1 to 10 |
